Results on two molecules are retold here after patent publication US11026972B2, “Methods for generating macrophages with enhanced cancer phagocytosis” (Georgia State University Research Foundation, Inc., priority 2016, dated 2021).

The subject of one experiment is SIRPα. Particulars: following LPS stimulation; cited from earlier work.
For a further experiment, the system named is Syk. Nature of the experiment: Syk phosphorylation at Y519/520 in PEMs. The experiment is classed as cell-based, mouse. The protocol:
FIGS. 5A-5H include data related to our experiments on the role of Syk in phagocytic activation. […] PEMs were treated with LPS and cytokines in the presence of various inhibitors. After washing, inhibitor-free macrophages were tested for phagocytosis toward RBCs. […] PEMs treated with LPS and activating cytokines, or together with IL-10, were tested for total Syk and phosphorylated Syk (Syk^pY, specific at Y519/520). FIG. 5D describes PMA-induced macrophages phagocytosis toward RBCs. WT and SIRPα^−/− PEMs were treated with PMA (37° C., 30 min) before testing phagocytosis toward RBCs. FIG. 5E is a schematic depiction of PKC-Syk-mediated macrophage phagocytic activation toward self. […] Left: Inhibition of Syk by piceatannol and R406 prevented PMA-induced phagocytic activation. […] Error bars are ±SEM. ***P<0.001 vs. the respective controls. […] LPS-treated WT PEMs were further briefly treated with pervanadate before testing for phagocytosis toward RBCs. Error bars are ±SEM. ***P<0.001 vs. the respective controls. […] Data presented in each panel represent at least three independent experiments with n≥4, if applicable.
Multiple pharmacological inhibitors were tested for their effects on LPS and cytokine-induced activation of macrophage phagocytosis toward self. […] For example, inhibition of JAKs blocked IL-6 and IL-17, but not LPS and TNFα, for activation of PEM phagocytosis. […]

Experiment [1] has as its system cell surface LRP1 and CRT on PEMs. Briefly: Macrophage cell surface CRT and LRP1 by FACS. It counts as cell-based, mouse. The following applies: after treatment with phagocytic activation factor. The protocol:
FIGS. 6A-6D include data related to our investigation of possible phagocytic receptors on macrophages for phagocytosing healthy self-cells. […] PEM (unstimulated) phagocytosis toward apoptotic B16 cells was tested in the presence of same antibodies and RAP as in A. Error bars are ±SEM. ***P<0.001 vs. phagocytosis in the presence of control IgG. […] PEMs, with or without (ctl.) treatment with LPS, IL-17, IL-6, or PMA, were labeled for cell surface LRP1 and CRT followed by FACS. Increased and decreased expressions were marked by arrows. […] Activated PEM phagocytosis toward RBCs was tested in the presence of antibodies against SR-A, Fc receptor Cd16/32 (10 μg/mL of each), inhibitors against SR-B (BLT1, 5 μM), dectin (laminarin, 100 μg/mL), complement (heparin, 40 U/mL), and antibody against Cd11b (10 μg/mL). Error bars are ±SEM. ***P<0.001 vs. the respective control without inhibition. Data presented in each panel represent at least three independent experiments with n≥4, if applicable.
A general note: A flow cytometer gives signals particle by particle.

In experiment [2] the test system is CFSE-labeled CD47^+ or CD47^− RBCs in recipient mice. Nature of the experiment: RBC adoptive transfer and in vivo clearance of CFSE-labeled RBCs. Also on record: species or system mouse. Particulars: 24 h. From the text:
FIGS. 2A-2E includes data related to macrophage phagocytosis in vivo assessed by adoptive transfer experiments. FIGS. 2A-C are illustrative graphs showing clearance of adoptively transferred CD47-positive (Cd47^+) or CD47-negative (Cd47^−) RBC in recipient mice. […] Error bars are ±SEM. **P<0.01, ***P<0.001 vs. WT mice clearance of Cd47^+ RBCs. […] Mice treated with DSS (1% for SIRPα^−/− mice, 2% for WT and Cd47^−/− mice) for 8 d (d8) were transfused with CFSE-RBCs followed by determination of RBC clearance after 24 h. FACS data of Cd47^+ RBCs and Cd47^− RBCs in different mice at 30 min and 24 h after transfer were selectively shown. Total RBC phagocytosis was calculated based on the rates of CFSE-RBC clearance and the fact that SIRPα^−/− mice eliminate both Cd47^− RBC and Cd47^+ RBC, whereas WT mice and Cd47^−/− mice eliminate only Cd47^− RBCs. […] Mice treated once with IL-17 (10 μg/kg, i.v.) were transfused with CFSE-labeled Cd47^+ or Cd47^− RBCs a day later. Error bars are ±SEM. **P<0.01, ***P<0.001 vs. control or the initial time point. Data presented in each panel represent at least three independent experiments with n≥4, if applicable.
Adoptive transfer and in vivo clearance: CD47-expressing (CD47^+) RBC freshly collected from WT or SIRPα^−/− mice, and CD47-null (CD47^−) RBC collected from CD47^−/− mice were labeled with carboxyfluorescein succinimidyl ester (CFSE). After washing, about 1×10^9 RBC suspended in 200 μl sterile PBS were transfused into recipient mice by intravenous (i.v.) injection. Blood samples (5 μl) were then collected 30 min after the blood transfusion and the CFSE-labeled RBC in the circulation was assessed by FACS analyses. Blood samples (5 μl each) were then collected at later time points to assess the clearance of CFSE-labeled RBC as compared to that found at 30 min. For each sample, at least 50,000 RBC were examined by FACS. […] Clearance of CFSE-labeled cells in the circulation and the spleen were analyzed by FACS analyses of blood samples and splenocytes. […]

Take lipopolysaccharide [LPS]: in the experiment with SIRPα, the “SIRPα expression in macrophages” value is “decreased”. The “Syk phosphorylation (Syk^PY, Y519/520)” value with Syk is “increases in Syk^PY”. For the same molecule, the “cell surface CRT or LRP1 on PEMs” value in experiment [1] is “induced an increase in CRT”.

B1: IL-17: recombinant murine cytokine interleukin IL-17 (also known as IL-17A), PeproTech (protein, UniProt Q62386 26-158, looked up)
Interleukin-17A: AAIIPQSSACPNTEAKDFLQNVKVNLKVFNSLGAKVSSRRPSDYLNRSTSPWTLHRNEDPDRYPSVIWEAQCRHQRCVNAEGKLDHHMNSVLIQQEILVLKREPESCPFTFRVEKMLVGVGCTCVASIVRQAA
Consider B1, for which, in experiment [2] (SIRPα^−/− mice, 1% DSS for 8 d or directly injected with IL-17), the “clearance of transferred CD47^+ and CD47^− RBCs” value is listed as roughly 50%. The “clearance of transferred RBCs” value in experiment [2] (mutant mice treated with IL-17 multiple times and a longer period (d1 and d3)) is less than 5%.
